Assay results published in patent US10934297B2, “5-heteroaryl substituted indazole-3-carboxamides and preparation and use thereof” (Samumed, LLC, priority 2018, dated 2021).

Legend:
[1] = test system: Wnt activity (Sp5-Luc reporter in SW480 cells); assay: Screening assay for Wnt activity: Sp5-Luc reporter gene assay in SW480 colon carcinoma cells; type: cell-based, human; conditions: Homo sapiens, 36 to 48 hours
Summary of the method: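 SW480 colon carcinoma cells stably carrying a lentiviral luciferase reporter driven by an Sp5 promoter with eight TCF/LEF sites, plated at 4,000 cells/well in DMEM with 1% FBS. Compound exposure for 36–48 h at 37 °C, then luminescence read. Signals normalized to DMSO; EC50 from four-parameter nonlinear fit.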

DYRK1A kinase = DYRK1A kinase (Homo sapiens (Human), UniProt Q13627); assay: DYRK1A kinase assay (Ser/Thr 18 peptide Z-lyte FRET); type: biochemical; conditions: read-out: EC50 (method: IC50)
Summary of the method: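 This Z-lyte FRET assay reads the coumarin/fluorescein emission ratio. Compounds were incubated with the reaction mixture for 1 h at room temperature, followed by development reagent for a further 1 h at room temperature, in duplicate.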

GSK3β kinase = GSK3β kinase (Homo sapiens (Human), UniProt P49841); assay: GSK3β kinase assay (Ser/Thr 09 peptide Z-lyte FRET); type: biochemical; conditions: read-out: EC50 (method: IC50)
Sequence of GSK3β kinase (P49841 whole entry): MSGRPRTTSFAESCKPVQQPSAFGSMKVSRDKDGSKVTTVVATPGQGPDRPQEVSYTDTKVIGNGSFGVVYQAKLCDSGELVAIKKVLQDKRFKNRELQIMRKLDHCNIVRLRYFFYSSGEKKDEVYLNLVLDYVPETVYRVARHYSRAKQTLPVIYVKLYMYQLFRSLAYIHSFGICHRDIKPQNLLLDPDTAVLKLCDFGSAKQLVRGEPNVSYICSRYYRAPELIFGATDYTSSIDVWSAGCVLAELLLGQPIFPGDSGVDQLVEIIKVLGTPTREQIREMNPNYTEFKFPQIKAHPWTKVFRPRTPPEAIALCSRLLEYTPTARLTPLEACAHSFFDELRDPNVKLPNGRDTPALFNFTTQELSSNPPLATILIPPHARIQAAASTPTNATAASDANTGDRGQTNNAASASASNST
Summary of the method: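 Non-radioactive Z-lyte FRET read-out, kinase activity expressed as coumarin/fluorescein emission ratio. Compounds incubated with the reaction mixture one hour at room temperature in duplicate, then development buffer added for another hour. IC50 from non-linear regression of dose-response curves.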

[2] = test system: SW480 colon carcinoma cells; assay: Cell viability assay (CellTiter-Glo) in SW480 colon carcinoma cells; type: cell-based, human; conditions: Homo sapiens, 96 h, four days
Summary of the method: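 SW480 cells stably carrying an Sp5-promoter luciferase reporter were plated at 2,000 cells/well in DMEM with 1% FBS and treated with compound for four days at 37 °C. Viability was read as ATP luminescence with CellTiter-Glo after about 12 min; DMSO-treated wells served as controls.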

[3] = test system: primary human fibroblasts derived from IPF patients (LL29 cells); assay: Inhibition of the fibrotic process: αSMA staining in TGF-β1 treated LL29 fibroblasts; type: cell-based; conditions: Homo sapiens, Fibroblast, 96 h; LL29 cells, TGF-β1 20 ng/mL, 4 days, % αSMA positive cells
Summary of the method: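 LL29 fibroblasts from IPF patients, in F12 medium with 1% FBS, treated with TGF-β1 plus compound; TGF-β1 with DMSO as positive control, DMSO alone as negative control. After 4 days' incubation, SYTOX green nucleic acid stain added at 1 μM final, 30 min at room temperature.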

IL-6 = IL-6 inhibition in LPS-stimulated human peripheral blood mononuclear cells (HTRF); type: cell-based; conditions: Homo sapiens, PBMC; for EC50: huPBMCs, LPS 50 ng/mL, 22 hours, IL-6 HTRF; for inhibition at 10 µM: read-out: percent inhibition at 10 μM
Summary of the method: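 Fresh human PBMCs at 1×10e6 cells/mL in RPMI/1% FBS were stimulated with 50 ng/mL E. coli 0111:B4 LPS added 2 h after compound, then incubated 22 h at 37° C. Secreted IL-6 was measured by HTRF (665/620 nm ratio) after 3 h at room temperature. EC50 was taken from activity normalized to DMSO-treated cells.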

[4] = test system: primary human mesenchymal stem cells (hMSCs); assay: Tenocyte differentiation assay (SCXA-positive cells) in hMSCs; type: cell-based; conditions: for EC50: Homo sapiens, Mesenchymal stem cells, 96 h, hMSCs, 4 days, SCXA positive cells; for percent in parentheses under EC50 >100: given for EC50 >100 μM, meaning not defined in this example
Summary of the method: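 Passage 3–6 hMSCs were compound-treated, fixed in 4% formaldehyde and stained overnight at 4 °C with anti-SCXA antibody; SCXA-positive cells were counted by imaging. Counts were normalized to the mean of 12 DMSO wells as fold change, averaged over 3 replicate wells per concentration, and curve-fitted for EC50.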

Row | Compound | EC50 [1] | IC50 (DYRK1A kinase) | IC50 (GSK3β kinase) | EC50 [2] | EC50 [3] | EC50 (IL-6) | EC50 [4] | percent in parentheses under EC50 >100 [4] | inhibition at 10 µM (IL-6)
1 | Cn1cc(-c2cc3c(C(=O)Nc4cccc(OC5CCNCC5)c4)n[nH]c3cc2F)cn1 [Compound 150, 6-Fluoro-5-(1-methyl-1H-pyrazol-4-yl)-N-(3-(piperidin-4-yloxy)phenyl)-1H-indazole-3-carboxamide] | 0.248 µM | 0.004 µM | 0.052 µM | 0.214 µM | 0.317 µM | 3.57 µM | > 100 µM | (17.4%) | –
2 | CN1CCC(Oc2cccc(NC(=O)c3n[nH]c4cc(F)c(-c5cnn(C)c5)cc34)c2)CC1 [Compound 151, 6-Fluoro-5-(1-methyl-1H-pyrazol-4-yl)-N-(3-((1-methylpiperidin-4-yl)oxy)phenyl)-1H-indazole-3-carboxamide] | 0.113 µM | 0.005 µM | 0.08 µM | 0.258 µM | > 10 µM | 7.37 µM | > 100 µM | (3.5%) | –
3 | CN1CCC(Oc2ccc(NC(=O)c3n[nH]c4c(F)cc(-c5cnn(C)c5)cc34)cc2)CC1 [Compound 152, 7-Fluoro-5-(1-methyl-1H-pyrazol-4-yl)-N-(4-((1-methylpiperidin-4-yl)oxy)phenyl)-1H-indazole-3-carboxamide] | 1.46 µM | 0.038 µM | 0.065 µM | 0.783 µM | 1.12 µM | 6.85 µM | > 100 µM | (34.7%) | –
4 | CN1CCC(Oc2ccc(NC(=O)c3n[nH]c4cc(F)c(-c5cn(C)nc5CO)cc34)cc2)CC1 [Compound 153, 6-Fluoro-5-(3-(hydroxymethyl)-1-methyl-1H-pyrazol-4-yl)-N-(4-((1-methylpiperidin-4-yl)oxy)phenyl)-1H-indazole-3-carboxamide] | > 10 µM | 1.21 µM | > 10 µM | > 10 µM | > 10 µM | > 10 µM | > 100 µM | (20.7%) | 3.7%
5 | Cn1cc(-c2cc3c(C(=O)Nc4cccc(OCCN5CCCC5)c4)n[nH]c3cc2F)cn1 [Compound 154, 6-Fluoro-5-(1-methyl-1H-pyrazol-4-yl)-N-(3-(2-(pyrrolidin-1-yl)ethoxy)phenyl)-1H-indazole-3-carboxamide] | 0.306 µM | 0.005 µM | 0.02 µM | 0.414 µM | 1.13 µM | 1.86 µM | > 100 µM | (21.0%) | –
6 | CN1CCC(Oc2cc(NC(=O)c3n[nH]c4cc(F)c(-c5cnn(C)c5)cc34)ccn2)CC1 [Compound 156, 6-Fluoro-5-(1-methyl-1H-pyrazol-4-yl)-N-(2-((1-methylpiperidin-4-yl)oxy)pyridin-4-yl)-1H-indazole-3-carboxamide] | 0.109 µM | 0.002 µM | 0.053 µM | 0.064 µM | 1.38 µM | 4.29 µM | 2.64 µM | – | –
7 | CN1CCC(Oc2ncc(NC(=O)c3n[nH]c4cc(F)c(-c5cnn(C)c5)cc34)cc2F)CC1 [Compound 157, 6-Fluoro-N-(5-fluoro-6-((1-methylpiperidin-4-yl)oxy)pyridin-3-yl)-5-(1-methyl-1H-pyrazol-4-yl)-1H-indazole-3-carboxamide] | 1.15 µM | 0.001 µM | 0.02 µM | 1.3 µM | 2.58 µM | 1.31 µM | > 100 µM | (35.3%) | –
8 | CC(C)n1cc(-c2cc3c(C(=O)Nc4ccc(OC5CCN(C)CC5)cc4)n[nH]c3cc2F)cn1 [Compound 158, 6-Fluoro-5-(1-isopropyl-1H-pyrazol-4-yl)-N-(4-((1-methylpiperidin-4-yl)oxy)phenyl)-1H-indazole-3-carboxamide] | 1.16 µM | 0.023 µM | 0.349 µM | 0.784 µM | 1.15 µM | 5.99 µM | > 100 µM | (17.4%) | –
9 | CN1CCC(n2cc(-c3ccc4[nH]nc(C(=O)Nc5ccc(F)cc5)c4c3)cn2)CC1 [Compound 159, N-(4-Fluorophenyl)-5-(1-(1-methylpiperidin-4-yl)-1H-pyrazol-4-yl)-1H-indazole-3-carboxamide] | 0.68 µM | 0.023 µM | 0.548 µM | 0.81 µM | 1.37 µM | 2.82 µM | > 100 µM | (15.5%) | –
10 | CN1CCC(Oc2ccc(NC(=O)c3n[nH]c4cc(F)c(-c5ccn(C)n5)cc34)cc2)CC1 [Compound 160, 6-Fluoro-5-(1-methyl-1H-pyrazol-3-yl)-N-(4-((1-methylpiperidin-4-yl)oxy)phenyl)-1H-indazole-3-carboxamide] | 3.56 µM | 0.061 µM | 3.26 µM | 2.6 µM | 3.24 µM | > 10 µM | > 100 µM | (18.6%) | 27.9%
11 | Cc1ncc(-c2ccc3[nH]nc(C(=O)Nc4ccc(OC5CCN(C)CC5)cc4)c3c2)n1C [Compound 161, 5-(1,2-Dimethyl-1H-imidazol-5-yl)-N-(4-((1-methylpiperidin-4-yl)oxy)phenyl)-1H-indazole-3-carboxamide] | 0.642 µM | 0.005 µM | 0.12 µM | 0.833 µM | 3.72 µM | 3.4 µM | > 100 µM | (31.8%) | –
12 | Cc1nc(-c2ccc3[nH]nc(C(=O)Nc4ccc(OC5CCN(C)CC5)cc4)c3c2)cs1 [Compound 162, N-(4-((1-Methylpiperidin-4-yl)oxy)phenyl)-5-(2-methylthiazol-4-yl)-1H-indazole-3-carboxamide] | > 10 µM | 0.141 µM | 5.06 µM | 4.6 µM | 2.64 µM | 7.69 µM | > 100 µM | (12.7%) | –
13 | Cc1ncc(-c2cc3c(C(=O)Nc4ccc(OC5CCN(C)CC5)cc4)n[nH]c3cc2F)s1 [Compound 163, 6-Fluoro-N-(4-((1-methylpiperidin-4-yl)oxy)phenyl)-5-(2-methylthiazol-5-yl)-1H-indazole-3-carboxamide] | 1.53 µM | 0.004 µM | 0.094 µM | 0.331 µM | 1 µM | 8.83 µM | > 100 µM | (40.7%) | –
14 | Cc1cc(-c2ccc3[nH]nc(C(=O)Nc4ccc(OC5CCN(C)CC5)cc4)c3c2)sn1 [Compound 164, 5-(3-Methylisothiazol-5-yl)-N-(4-((1-methylpiperidin-4-yl)oxy)phenyl)-1H-indazole-3-carboxamide] | 1.39 µM | 0.003 µM | 0.088 µM | 0.268 µM | 0.305 µM | 1.33 µM | > 100 µM | (33.1%) | –
